Measurements published in US10046007B2, “Compositions and methods for treatment of short telomere disorders” (PRESCIENT PHARMA LLC, priority 2015, dated 2018).
“Also recorded” adds a separate entry of the source. Where two headings read alike, the source gives them in different places.

System: bleomycin-induced pulmonary fibrosis
Description: Bleomycin solution: bleomycin (commercially available from SigmaAldrich) in PBS was used for intra-tracheal bleomycin administration. (0.04 U of bleomycin in 50 μl in PBS/mouse/per inhalation).
13 female mice (commercially available from Charles River Laboratories, BALB/C) were randomly divided into 4 groups, as follows:
Each mouse was anesthetized with 87.5 mg ketamine/kg and 12.5 mg xyline/kg cocktail 0.1 ml/20 g body weight IM. For both lithium and bleomycin intra-tracheal administration, tracheal intubation was performed using with a 23 gauge IV catheter through the mouth, followed by insertion of PE-10 tubing into the trachea. After placement of the PE-10 tubing inside the trachea, the 23 gauge iv catheter was quickly removed. Lithium or bleomycin was instilled through the PE-10 tubing. The instillation volume was 50 μl each administration for each mouse. The procedure time was around 15 minutes per mouse.
For Group 1 (n=1), no treatment was administered and the mouse was sacrificed as control.
The mice was sacrificed at 21 days after first lithium administration. The mice were sacrificed using pentobarbital 200 mg/kg ip. After the mice were sacrificed, the lungs were quickly harvested and perfused with 10% formalin buffer through the trachea. The lung tissue was then fixed in 10% formalin buffer for 3 days.
For Group 3 (n=6), the mice were pre-treated with intra-tracheal lithium instillation (0.15 mM in 50 μl saline) every other day for 3 administrations. 7 days after the final lithium pre-treatment, intra-tracheal bleomycin was instilled (0.04 U in 50 μl saline). The mice in this group were then sacrificed 14 days after bleomycin administration. The mice were sacrificed using pentobarbital 200 mg/kg ip. After the mice were sacrificed, the lungs were quickly harvested and perfused with 10% formalin buffer through the trachea. The lung tissue was then fixed in 10% formalin buffer for 3 days.
For Group 4 (n=5), only intra-tracheal bleomycin was instilled (0.04 U in 50 μl saline). The mice in this group were then sacrificed 14 days after bleomycin administration. The mice were sacrificed using pentobarbital 200 mg/kg ip. After the mice were sacrificed, the lungs were quickly harvested and perfused with 10% formalin buffer through the trachea. The lung tissue was then fixed in 10% formalin buffer for 3 days.
Following the 3 day period, macroscopical examination of the lung tissue was performed by dissection. The lung tissue were cut into 1-2 mm slices and visually inspected for areas of grey-white discoloration. […] The lung slices were then embedded in paraffin and sectioned into 5-μm-thick sections. Hematoxylin and eosin (H&E) and trichrome staining (abcam; ab150686) were performed for tissue samples from each group. The stained slides were then examined under light microscope (Olympus BX51) and photographed (Olympus DP-73 digital camera).
An Ashcroft score was then calculated for each of the group (T Ashcroft at al., Simple method of estimating severity of pulmonary fibrosis on a numerical scale. J Clin Pathol 1988; 41:467-470). The Ashcroft score provides a simple method of estimating severity of pulmonary fibrosis on a numerical scale.

| Molecule | signs of lung tissue damage, macroscopic and microscopic (H&E, trichrome) (Group 2: lithium inhalation only) | Ashcroft score (Group 2: lithium inhalation only, 0.15 mM lithium carbonate 50 μl intratracheal every other day for 3 administrations, sacrificed at 21 days) | Ashcroft score (Group 3: intra-tracheal lithium 0.15 mM in 50 μl every other day for 3 administrations, bleomycin 0.04 U 7 days after final lithium, sacrificed 14 days after bleomycin) | signs of lung tissue damage, macroscopic and microscopic (H&E, trichrome) (Group 3: lithium pre-treatment followed by bleomycin) | pulmonary fibrosis development induced by bleomycin (lithium pre-treatment by inhalation, mice) | macroscopic examination of lung sections (grey-white discoloration) (Group 4: bleomycin alone) | microscopic examination of discoloured lung areas (Group 4: bleomycin alone) | Ashcroft score (Group 4: intra-tracheal bleomycin alone 0.04 U in 50 μl, sacrificed 14 days after bleomycin) |
| --- | --- | --- | --- | --- | --- | --- | --- | --- |
| O=C([O-])[O-].[Li+].[Li+] [lithium carbonate] | did not show any macroscopically or microscopically sign of lung tissue damage | 0 | 0 | did not reveal any signs macroscopically or microscopically of lung tissue damage | completely abolishes |  |  |  |
| bleomycin |  |  |  |  |  | only areas of such discoloration were found in the lung tissue of Group 4 mice; also recorded: multiple areas of grey-white discoloration mostly in peri-pleural areas | profound fibrotic changes | 4.03 |
